Results: patent US5616606A, “Oligopeptide antiretroviral agents” (priority 1995, dated 1997)
Where two headings read alike, the source gives them in different places.

Key:
vaccinia virus = format: cell-based; details: against vaccinia virus; hydrochloride
[1] = test system: T4 lymphocytes (CEM cell line); assay: NCI anti-HIV screen, toxicity control in uninfected cells; format: cell-based; details: Table X
HIV-1 = details: for INFECTED RESPONSE % of Control: Table X
poly(dA-dT) = assay: ethidium displacement assay, poly(dA-dT); details: relative to ethidium 9.5 × 10^6 M^-1, average of repeat measurements
[2] = target: Moloney Leukemia Virus reverse transcriptase (Moloney murine leukemia virus, UniProt P03355); assay: inhibition of MLV associated reverse transcriptase activity; details: 50% inhibitory dose after 120 min incubation

Row | Compound | minimum inhibitory concentration (vaccinia virus) [µg/mL] | […] % of Control ([1]; dose 2.92 × 10^-4 Molar) | […] % of Control ([1]; dose 2.93 × 10^-5 Molar) | […] % of Control ([1]; dose 2.93 × 10^-6 Molar) | […] % of Control ([1]; dose 2.94 × 10^-7 Molar) | […] % of Control ([1]; dose 9.25 × 10^-4 Molar) | […] % of Control ([1]; dose 9.27 × 10^-5 Molar) | […] % of Control ([1]; dose 9.29 × 10^-7 Molar) | […] % of Control ([1]; dose 9.38 × 10^-6 Molar) | EC50 (HIV-1; Table XI) [nM] | INFECTED RESPONSE % of Control (HIV-1; dose 2.92 × 10^-4 Molar) | INFECTED RESPONSE % of Control (HIV-1; dose 2.93 × 10^-5 Molar) | INFECTED RESPONSE % of Control (HIV-1; dose 2.93 × 10^-6 Molar) | INFECTED RESPONSE % of Control (HIV-1; dose 2.94 × 10^-7 Molar) | INFECTED RESPONSE % of Control (HIV-1; dose 9.25 × 10^-4 Molar) | INFECTED RESPONSE % of Control (HIV-1; dose 9.27 × 10^-5 Molar) | INFECTED RESPONSE % of Control (HIV-1; dose 9.29 × 10^-7 Molar) | INFECTED RESPONSE % of Control (HIV-1; dose 9.38 × 10^-6 Molar) | Kapp (poly(dA-dT)) [M⁻¹] | ID50 (average ± SD) [2] [µg/mL]
1 | 1-Methyl-4-(1-methyl-4-trimethylammoniumacetamidopyrrole-2-carboxamido)pyr role-2-carboxyamidopriopionamidine chloride hydrochloride [3(B)] | 300 | – | – | – | – | – | – | – | – | – | – | – | – | – | – | – | – | – | – | –
2 | 1-Methyl-4-(1-methyl-4-trimethylammoniumacetamidopyrrole-2-carboxamido)pyr role-2-carboxyamidopriopionamidine chloride hydrochloride [Example 3(A)] | 20 | – | – | – | – | – | – | – | – | – | – | – | – | – | – | – | – | – | – | –
3 | Cl.Cl.Cn1cc(NC(=O)c2cc(NC(=O)[C@@H]3CC[C@H]3C(=O)Nc3cc(C(=O)Nc4cc(C(=O)NCCC(=N)N)n(C)c4)n(C)c3)cn2C)cc1C(=O)NCCC(=N)N (relative stereo) [Compound 25b, N,N'-di[1-methyl-2-[1-methyl-2-carboxamido(3-propionamidine)-4-pyrrole]-4-pyrrolyl] trans 1,2-cyclobutaneamide dihydrochloride] | – | 0.54 % of Control | 174.62 % of Control | 116.36 % of Control | 90.95 % of Control | 8.29 % of Control | 101.95 % of Control | 102.41 % of Control | 145.18 % of Control | 420 | 0.04 % of Control | 110.05 % of Control | 77.00 % of Control | 42.92 % of Control | 9.72 % of Control | 90.52 % of Control | 59.07 % of Control | 80.26 % of Control | 5.6e+07 | 21.8 ± 9.2
